Laboratory results from ChEMBL document CHEMBL3112455, “Synthesis of 6-tetrazolyl-substituted sulfocoumarins acting as highly potent and selective inhibitors of the tumor-associated carbonic anhydrase isoforms IX and XII” (Bioorg Med Chem, 2014).

How the values were obtained:
Carbonic anhydrase 1 = Carbonic anhydrase 1 (Homo sapiens, UniProt P00915); experiment: Inhibition of human recombinant cytosolic carbonic anhydrase 1 after 6 hrs by stopped flow CO2 hydration method
Carbonic anhydrase 9 = Carbonic anhydrase 9 (Homo sapiens, UniProt Q16790)
Description: Inhibition of human recombinant transmembrane carbonic anhydrase 9 after 6 hrs by stopped flow CO2 hydration method

Carbonic anhydrase 2 = Carbonic anhydrase 2 (Homo sapiens, UniProt P00918); experiment: Inhibition of human recombinant cytosolic carbonic anhydrase 2 after 6 hrs by stopped flow CO2 hydration method
Carbonic anhydrase 12 = Carbonic anhydrase 12 (Homo sapiens, UniProt O43570); experiment: Inhibition of human recombinant transmembrane carbonic anhydrase 12 after 6 hrs by stopped flow CO2 hydration method
Carbonic anhydrase 12, sequence (O43570 whole entry): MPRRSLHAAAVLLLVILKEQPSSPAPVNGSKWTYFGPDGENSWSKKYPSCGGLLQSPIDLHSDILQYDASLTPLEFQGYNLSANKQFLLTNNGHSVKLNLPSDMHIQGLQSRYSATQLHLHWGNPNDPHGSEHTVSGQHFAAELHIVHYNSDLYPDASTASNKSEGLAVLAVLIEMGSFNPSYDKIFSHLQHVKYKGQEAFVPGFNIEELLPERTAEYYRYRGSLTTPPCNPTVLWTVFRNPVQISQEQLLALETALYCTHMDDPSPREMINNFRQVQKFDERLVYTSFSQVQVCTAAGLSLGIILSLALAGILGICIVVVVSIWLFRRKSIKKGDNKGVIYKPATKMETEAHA

Carbonic anhydrase 1, sequence (P00915 whole entry): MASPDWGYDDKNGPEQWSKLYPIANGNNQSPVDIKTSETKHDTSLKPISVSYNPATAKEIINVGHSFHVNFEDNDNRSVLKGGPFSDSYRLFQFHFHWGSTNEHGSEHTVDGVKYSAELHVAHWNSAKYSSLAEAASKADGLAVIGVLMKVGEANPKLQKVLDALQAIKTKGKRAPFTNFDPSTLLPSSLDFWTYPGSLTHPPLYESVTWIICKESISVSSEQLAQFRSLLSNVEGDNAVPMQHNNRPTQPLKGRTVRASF

Question: O=S1(=O)C=Cc2cc(-c3nnnn3-c3cccc(Br)c3)ccc2O1 was tested. Which Ki (Carbonic anhydrase 1) did it give?
Answer: > 10 µM

Question: And the Ki (Carbonic anhydrase 9)?
Answer: 0.0568 µM

Question: And the Ki (Carbonic anhydrase 2)?
Answer: > 10 µM

Question: For O=S1(=O)C=Cc2cc(-c3nnnn3-c3ccc(F)c(Cl)c3)ccc2O1, which Ki (Carbonic anhydrase 12) is on record?
Answer: 0.0054 µM

Question: And the Ki (Carbonic anhydrase 1)?
Answer: > 10 µM

Question: And the Ki (Carbonic anhydrase 9)?
Answer: 0.0069 µM

Question: And the Ki (Carbonic anhydrase 2)?
Answer: > 10 µM

Question: How did the Ki (Carbonic anhydrase 1) turn out when O=S1(=O)C=Cc2cc(-c3nnnn3-c3ccc(C(F)(F)F)cc3)ccc2O1 was run?
Answer: > 10 µM

Question: And the Ki (Carbonic anhydrase 9)?
Answer: 0.0393 µM

Question: And the Ki (Carbonic anhydrase 2)?
Answer: > 10 µM

Question: How did the Ki (Carbonic anhydrase 1) turn out when O=S1(=O)C=Cc2cc(-c3nnnn3-c3ccc(Cl)c(Cl)c3)ccc2O1 was run?
Answer: > 10 µM

Question: What about the Ki (Carbonic anhydrase 9) of the same compound?
Answer: 0.0082 µM

Question: What about the Ki (Carbonic anhydrase 2) of the same compound?
Answer: > 10 µM

Question: Which Ki (Carbonic anhydrase 1) does the source give for O=S1(=O)C=Cc2cc(-c3nnnn3-c3ccc(Cl)cc3)ccc2O1 here?
Answer: > 10 µM

Question: What about the Ki (Carbonic anhydrase 9) of the same compound?
Answer: 0.0088 µM

Question: What about the Ki (Carbonic anhydrase 2) of the same compound?
Answer: > 10 µM

Question: Which Ki (Carbonic anhydrase 1) does the source give for O=S1(=O)C=Cc2cc(-c3nnnn3-c3ccccc3)ccc2O1 here?
Answer: > 10 µM

Question: And the Ki (Carbonic anhydrase 2)?
Answer: > 10 µM

Question: With O=S1(=O)C=Cc2cc(-n3cnnn3)ccc2O1 as the compound, how does the Ki (Carbonic anhydrase 1) read?
Answer: > 10 µM

Question: And the Ki (Carbonic anhydrase 2)?
Answer: > 10 µM

Question: What does the source list for Cc1nnnn1-c1ccc2c(c1)C=CS(=O)(=O)O2?
Answer: Ki (Carbonic anhydrase 1): > 10 µM; Ki (Carbonic anhydrase 2): > 10 µM

Question: What does the source list for O=S1(=O)C=Cc2cc(-c3nnnn3-c3cccc4ccccc34)ccc2O1?
Answer: Ki (Carbonic anhydrase 1): > 10 µM; Ki (Carbonic anhydrase 2): > 10 µM

Question: Which results are given for Cc1ccc(-n2nnnc2-c2ccc3c(c2)C=CS(=O)(=O)O3)cc1?
Answer: Ki (Carbonic anhydrase 1): > 10 µM; Ki (Carbonic anhydrase 9): 0.0091 µM; Ki (Carbonic anhydrase 2): > 10 µM

Question: How did the Ki (Carbonic anhydrase 1) turn out when Cc1cccc(-n2nnnc2-c2ccc3c(c2)C=CS(=O)(=O)O3)c1 was run?
Answer: > 10 µM

Question: What about the Ki (Carbonic anhydrase 9) of the same compound?
Answer: 0.0271 µM

Question: And the Ki (Carbonic anhydrase 2)?
Answer: > 10 µM

Question: For COc1ccc(-n2nnnc2-c2ccc3c(c2)C=CS(=O)(=O)O3)cc1, which Ki (Carbonic anhydrase 1) is on record?
Answer: > 10 µM

Question: And the Ki (Carbonic anhydrase 9)?
Answer: 0.0087 µM

Question: What about the Ki (Carbonic anhydrase 2) of the same compound?
Answer: > 10 µM
